Measured values from patent US20250108038A1 (priority 2023, published 2025).

Tests used:
[1] = system: HEK293 uptake transporter overexpressing and control cells; experiment: Resazurin-based cytotoxicity assay
Procedure: The cells were plated on 96-well plates. Prior to the experiment the medium was removed, and cells were rinsed with 2×100 μL of the respective buffer for uptake transporter transfected and control cell lines.

OCT1 = biological target: T1, OCT1 (Homo sapiens, UniProt O15245); experiment: Uptake transporter inhibition assay, OCT1 (sumatriptan)
T1 sequence (O15245 1-554): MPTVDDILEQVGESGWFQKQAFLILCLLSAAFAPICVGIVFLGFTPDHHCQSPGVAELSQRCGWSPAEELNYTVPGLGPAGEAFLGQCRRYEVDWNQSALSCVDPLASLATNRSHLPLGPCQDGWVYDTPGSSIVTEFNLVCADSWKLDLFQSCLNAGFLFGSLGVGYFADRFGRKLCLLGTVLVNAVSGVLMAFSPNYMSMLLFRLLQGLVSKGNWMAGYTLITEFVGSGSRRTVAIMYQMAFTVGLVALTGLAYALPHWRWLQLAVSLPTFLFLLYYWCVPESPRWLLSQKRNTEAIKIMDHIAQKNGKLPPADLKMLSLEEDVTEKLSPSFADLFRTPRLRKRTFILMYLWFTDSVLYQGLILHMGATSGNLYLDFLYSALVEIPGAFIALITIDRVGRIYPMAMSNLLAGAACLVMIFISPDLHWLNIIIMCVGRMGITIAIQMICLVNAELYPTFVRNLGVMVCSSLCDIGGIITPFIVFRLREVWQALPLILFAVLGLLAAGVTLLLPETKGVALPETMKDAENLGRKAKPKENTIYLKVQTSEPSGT
Procedure: Uptake experiments were performed using HEK293 cells stably expressing the respective uptake transporters. The assays were conducted according to the actual SOLVO uptake transporter assay protocols (PR-ASY-UPT-General Protocol for Uptake Transporter Inhibition Assays).
Cells were cultured at 37° C. in a humidified atmosphere containing 5% CO2 and were plated onto standard 96-well tissue culture plates.
Before the experiment, the medium was removed, and the cells were washed twice with 100 μL of pre-warmed (37° C.) assay buffer listed in Table 15. The cells were pre-incubated at 37° C. for 30 minutes in assay buffer containing the test article at appropriate concentrations (Table 16), appropriate solvents for solvent controls and the reference inhibitor for reference inhibitor wells. After the pre-incubation step solutions were removed. Uptake experiments were performed at 37° C. in 50 μL of assay buffer containing the probe substrate and the test article or solvent and controls.
After the experiment, cells were washed twice with 100 μL of appropriate cold buffer and lysed with 150 μL scintillation cocktail. Radiolabeled probe substrate transport was determined by liquid scintillation counting.
Uptake of the probe substrate in control cells provided background activity values for all data points.

[2] = MATE1 assay, 12.50 μM, incubation 30 + 3 min
[3] = MATE1 assay, 50.00 μM, incubation 30 + 3 min
[4] = MATE1 assay, 100.00 μM, incubation 30 + 3 min
[5] = MATE2-K assay, 12.50 μM, incubation 30 + 1 min
[6] = MATE2-K assay, 50.00 μM, incubation 30 + 1 min
[7] = MATE2-K assay, 100.00 μM, incubation 30 + 1 min
[8] = OAT1 assay, 12.50 μM, incubation 30 + 2 min
[9] = OAT1 assay, 50.00 μM, incubation 30 + 2 min
[10] = OAT1 assay, 100.00 μM, incubation 30 + 2 min
[11] = OAT3 assay, 12.50 μM, incubation 30 + 1 min
[12] = OAT3 assay, 50.00 μM, incubation 30 + 1 min
[13] = OAT3 assay, 100.00 μM, incubation 30 + 1 min
[14] = OATP1B1 assay, 12.50 μM, incubation 30 + 3 min
[15] = OATP1B1 assay, 50.00 μM, incubation 30 + 3 min
[16] = OATP1B1 assay, 100.00 μM, incubation 30 + 3 min
[17] = OATP1B3 assay, 12.50 μM, incubation 30 + 2 min
[18] = OATP1B3 assay, 50.00 μM, incubation 30 + 2 min
[19] = OATP1B3 assay, 100.00 μM, incubation 30 + 2 min
[20] = OCT1 assay, 12.50 μM, incubation 30 + 3 min
[21] = OCT1 assay, 50.00 μM, incubation 30 + 3 min
[22] = OCT1 assay, 100.00 μM, incubation 30 + 3 min
[23] = OCT2 assay, 12.50 μM, incubation 30 + 1 min
[24] = OCT2 assay, 50.00 μM, incubation 30 + 1 min
[25] = OCT2 assay, 100.00 μM, incubation 30 + 1 min
[26] = 0.14 μM nominal, 0.09 μM NSB corrected, follow-up assay
[27] = 1.24 μM nominal, 0.86 μM NSB corrected, follow-up assay
[28] = 10.00 μM nominal, 6.60 μM NSB corrected
[29] = 11.11 μM nominal, 7.89 μM NSB corrected, follow-up assay
[30] = 33.33 μM nominal, 24.33 μM NSB corrected, follow-up assay
[31] = 100.00 μM nominal, 77.00 μM NSB corrected
[32] = 100.00 μM nominal, 100.00 μM NSB corrected, follow-up assay
[33] = […] nominal, 1.89 μM NSB corrected, follow-up assay

For `Clc1ccc(C2(OCC3OCCO3)c3ccccc3C3=NCCN32)cc1` (stereo not drawn) [Compound I-19], the “Cell viability (cytotoxic effect)” value ([1]; HEK293-MATE1-LV, -MATE2-K-LV, -OAT1-LV, -OAT3-LV, -OATP1B1-LV, -OATP1B3-LV, -OCT1-LV, -OCT2-LV and control cells) was “did not reduce the cell viability”, the “Relative cell viability, control cells” value [1, 2] was 97.67 ± 3.73 % of control and the “Relative cell viability, transfected cells” value [1, 2] was 97.90 ± 1.86 % of control. For the same compound, the “Relative cell viability, control cells” value [1, 3] was 93.64 ± 2.83 % of control, the “Relative cell viability, transfected cells” value [1, 3] was 95.88 ± 2.04 % of control and the “Relative cell viability, control cells” value [1, 4] was 85.16 ± 2.74 % of control. For the same compound, the “Relative cell viability, transfected cells” value [1, 4] was 97.35 ± 2.64 % of control, the “Relative cell viability, control cells” value [1, 5] was 104.66 ± 2.14 % of control and the “Relative cell viability, transfected cells” value [1, 5] was 101.07 ± 1.57 % of control. For the same compound, the “Relative cell viability, control cells” value [1, 6] was 104.14 ± 1.46 % of control, the “Relative cell viability, transfected cells” value [1, 6] was 106.73 ± 1.88 % of control and the “Relative cell viability, control cells” value [1, 7] was 84.34 ± 2.47 % of control. For the same compound, the “Relative cell viability, transfected cells” value [1, 7] was 101.71 ± 1.17 % of control, the “Relative cell viability, control cells” value [1, 8] was 98.64 ± 5.98 % of control and the “Relative cell viability, transfected cells” value [1, 8] was 97.97 ± 3.47 % of control. The “Relative cell viability, control cells” value [1, 9] was 97.24 ± 5.90 % of control, the “Relative cell viability, transfected cells” value [1, 9] was 95.01 ± 3.42 % of control and the “Relative cell viability, control cells” value [1, 10] was 90.45 ± 6.49 % of control. For the same compound, the “Relative cell viability, transfected cells” value [1, 10] was 88.69 ± 3.44 % of control, the “Relative cell viability, control cells” value [1, 11] was 102.06 ± 3.84 % of control and the “Relative cell viability, transfected cells” value [1, 11] was 99.42 ± 0.98 % of control. For the same compound, the “Relative cell viability, control cells” value [1, 12] was 92.66 ± 3.32 % of control, the “Relative cell viability, transfected cells” value [1, 12] was 97.87 ± 1.31 % of control and the “Relative cell viability, control cells” value [1, 13] was 83.05 ± 3.00 % of control. The “Relative cell viability, transfected cells” value [1, 13] was 97.06 ± 1.13 % of control, the “Relative cell viability, control cells” value [1, 14] was 96.78 ± 4.68 % of control and the “Relative cell viability, transfected cells” value [1, 14] was 99.91 ± 0.74 % of control. For the same compound, the “Relative cell viability, control cells” value [1, 15] was 93.42 ± 4.34 % of control, the “Relative cell viability, transfected cells” value [1, 15] was 98.71 ± 0.94 % of control and the “Relative cell viability, control cells” value [1, 16] was 89.12 ± 4.63 % of control. For the same compound, the “Relative cell viability, transfected cells” value [1, 16] was 94.19 ± 1.27 % of control, the “Relative cell viability, control cells” value [1, 17] was 103.94 ± 0.47 % of control and the “Relative cell viability, transfected cells” value [1, 17] was 102.23 ± 1.09 % of control. For the same compound, the “Relative cell viability, control cells” value [1, 18] was 101.22 ± 1.01 % of control, the “Relative cell viability, transfected cells” value [1, 18] was 101.42 ± 1.04 % of control and the “Relative cell viability, control cells” value [1, 19] was 95.06 ± 1.40 % of control. For the same compound, the “Relative cell viability, transfected cells” value [1, 19] was 97.75 ± 0.86 % of control, the “Relative cell viability, control cells” value [1, 20] was 101.25 ± 5.53 % of control and the “Relative cell viability, transfected cells” value [1, 20] was 92.84 ± 3.54 % of control. For the same compound, the “Relative cell viability, control cells” value [1, 21] was 98.64 ± 5.26 % of control, the “Relative cell viability, transfected cells” value [1, 21] was 92.82 ± 3.41 % of control and the “Relative cell viability, control cells” value [1, 22] was 92.32 ± 6.47 % of control. For the same compound, the “Relative cell viability, transfected cells” value [1, 22] was 86.46 ± 3.25 % of control, the “Relative cell viability, control cells” value [1, 23] was 99.87 ± 1.09 % of control and the “Relative cell viability, transfected cells” value [1, 23] was 99.66 ± 1.41 % of control. The “Relative cell viability, control cells” value [1, 24] was 97.55 ± 0.85 % of control, the “Relative cell viability, transfected cells” value [1, 24] was 99.58 ± 1.02 % of control and the “Relative cell viability, control cells” value [1, 25] was 87.66 ± 0.85 % of control. The “Relative cell viability, transfected cells” value [1, 25] was 96.29 ± 1.73 % of control, the “decrease of the relative cell viability compared to solvent (DMSO)” value ([1]; all uptake transporter overexpressing and control cells) was “less than 20%” and the Relative inhibition (OCT1; [26]) was 16%. The “Relative transporter specific accumulation” value (OCT1; [26]) was 84.03 ± 3.76 % of control, the Transporter specific accumulation (OCT1; [26]) was 896.33 ± 19.14 cpm and the Relative inhibition (OCT1; [27]) was 39%. The “Relative transporter specific accumulation” value (OCT1; [27]) was 61.16 ± 2.59 % of control, the Transporter specific accumulation (OCT1; [27]) was 652.33 ± 10.37 cpm and the Relative inhibition (OCT1; [28]) was 71%. The “Relative transporter specific accumulation” value (OCT1; [28]) was 29.35 ± 0.48 % of control, the Transporter specific accumulation (OCT1; [28]) was 930.00 ± 10.03 cpm and the Relative inhibition (OCT1; [29]) was 73%. The “Relative transporter specific accumulation” value (OCT1; [29]) was 27.13 ± 1.77 % of control, the Transporter specific accumulation (OCT1; [29]) was 289.33 ± 15.11 cpm and the Relative inhibition (OCT1; [30]) was 86%. For the same compound, the “Relative transporter specific accumulation” value (OCT1; [30]) was 14.47 ± 0.94 % of control, the Transporter specific accumulation (OCT1; [30]) was 154.33 ± 8.03 cpm and the Relative inhibition (OCT1; [31]) was 92%. For the same compound, the “Relative transporter specific accumulation” value (OCT1; [31]) was 8.17 ± 0.48 % of control, the Transporter specific accumulation (OCT1; [31]) was 259.00 ± 14.94 cpm and the Relative inhibition (OCT1; [32]) was 92%. For the same compound, the “Relative transporter specific accumulation” value (OCT1; [32]) was 7.84 ± 1.11 % of control, the Transporter specific accumulation (OCT1; [32]) was 83.67 ± 11.38 cpm and the “maximum inhibition of OCT1-mediated sumatriptan accumulation” value (OCT1; 2-concentration assay, 100 μM (Compound A 30 μM)) was 92%. The Maximum % inhibition (OCT1; OCT1, HEK293 cells, sumatriptan (10 μM), NIO: no inhibition observed) was 92%, the Relative inhibition (OCT1; [33]) was 55% and the “Relative transporter specific accumulation” value (OCT1; [33]) was 45.47 ± 2.44 % of control. The Transporter specific accumulation (OCT1; [33]) was 485.00 ± 17.73 cpm, the “maximum inhibition of OCT1-mediated sumatriptan accumulation” value (OCT1; follow-up assay) was 92% and the IC50 (OCT1; follow-up assay, NSB-corrected concentrations for Compound I-19) was 3.32 µM.
